Data published in patent US20250313565A1, “NEW INDAZOLE DERIVATIVES” (Hoffmann-La Roche Inc., priority 2022, published 2025).

These compounds were tested against T1, EGFR LRCS (BaF3-LRCS cell line) (Homo sapiens, UniProt P00533, C797S/L858R) (assay: HTRF Phospho EGFR LRCS assay (cellular)). Details: BaF3-LRCS cells, 4 hours incubation, Phospho-EGFR HTRF readout.
T1 construct: host or cells: BaF3-LRCS cell line (kept under puromycin selection)
Type: cell-based
Experimental: HTRF Phospho EGFR LRCS assay (cellular)
BaF3-LRCS cell line were obtained from Crownbio (San Diego, CA, USA). Cells were maintained at 37° C., 5% C02 in RPMI ATCC (Gibco 31870)+2 mM Glutamine+0.5 μg/ml Puromycin supplemented with 10% fetal bovine serum (FBS) (Gibco).
Cells are transferred as above to Greiner Bio-One, Nr. 784-08 micro-titerplate at 20000 cells/well in 12.5 μl of growth medium/well after the plates had been pre-filled with 12.5 nl of DMSO solutions of the to be tested compounds (in dose response) or DMSO only. After spinning the plates at 300×g for 30 seconds the cells were incubated for 4 hours at 37 C, 5% CO2, 95% humidity. The cells were lysed by adding to the compound mix 4 µl/well of the supplemented lysis buffer (Cis-bio, Phospho-EGFR HTRF kit, 64EG1PEH), followed by incubation for 30 min at room temperature with shaking (400 rpm). The plates were then frozen and stored overnight at −80° C. On the next day and after thawing the plates, 4 μl of a mixture of anti-Phospho-EGFR Cryptate and of anti-Phospho-EGFR-d2 antibody solutions prepared in the supplied detection buffer was added to each well. The lidded plates were then incubated for 4 h at room temperature before reading the fluorescence emission at 616 and 665 nm using an Envision reader (Perkin Elmer). Data was analyzed in similar fashion as above using the normalized ratio of the 665 to 616 signals multiplied by 10000.

T1 sequence (P00533 25-1210 C797S/L858R): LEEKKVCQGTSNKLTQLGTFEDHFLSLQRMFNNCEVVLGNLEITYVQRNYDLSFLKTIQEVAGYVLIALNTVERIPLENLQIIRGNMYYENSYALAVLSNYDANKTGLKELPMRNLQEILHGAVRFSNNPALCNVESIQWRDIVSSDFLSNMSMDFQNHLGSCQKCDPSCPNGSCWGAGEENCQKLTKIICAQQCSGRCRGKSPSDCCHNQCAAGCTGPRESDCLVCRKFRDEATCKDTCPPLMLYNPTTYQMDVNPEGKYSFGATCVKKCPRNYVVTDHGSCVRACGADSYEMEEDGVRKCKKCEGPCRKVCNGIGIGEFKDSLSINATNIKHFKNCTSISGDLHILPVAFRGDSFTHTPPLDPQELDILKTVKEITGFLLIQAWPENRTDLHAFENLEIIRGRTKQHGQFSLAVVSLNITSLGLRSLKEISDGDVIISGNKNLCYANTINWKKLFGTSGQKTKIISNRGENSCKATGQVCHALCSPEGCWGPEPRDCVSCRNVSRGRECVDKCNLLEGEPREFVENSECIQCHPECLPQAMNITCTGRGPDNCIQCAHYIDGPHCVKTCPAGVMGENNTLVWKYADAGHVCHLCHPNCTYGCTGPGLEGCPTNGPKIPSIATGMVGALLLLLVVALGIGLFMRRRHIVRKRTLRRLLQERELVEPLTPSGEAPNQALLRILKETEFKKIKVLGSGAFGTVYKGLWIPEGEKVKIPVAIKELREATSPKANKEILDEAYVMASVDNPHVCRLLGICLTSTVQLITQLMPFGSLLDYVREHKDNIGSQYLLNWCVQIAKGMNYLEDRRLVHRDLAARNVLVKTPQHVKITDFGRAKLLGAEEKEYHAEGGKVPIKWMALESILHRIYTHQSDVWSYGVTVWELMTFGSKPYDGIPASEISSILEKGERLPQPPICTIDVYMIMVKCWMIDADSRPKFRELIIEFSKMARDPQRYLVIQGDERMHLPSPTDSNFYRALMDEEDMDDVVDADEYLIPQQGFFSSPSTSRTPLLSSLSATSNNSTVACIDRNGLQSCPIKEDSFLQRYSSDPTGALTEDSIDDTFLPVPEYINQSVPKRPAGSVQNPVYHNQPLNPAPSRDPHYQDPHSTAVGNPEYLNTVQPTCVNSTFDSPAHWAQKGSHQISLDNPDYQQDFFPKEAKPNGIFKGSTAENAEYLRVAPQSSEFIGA

First: Cc1c(-c2ccc(N3CCOCC3)cc2)cc(C(F)F)c2cn(C(C(=O)Nc3nccs3)c3ncn4c3CCC43CC3)nc12 (stereo not drawn) [Example 1, 2-[4-(Difluoromethyl)-7-methyl-6-(4-morpholinophenyl)indazol-2-yl]-2-spiro[6,7-dihydropyrrolo[1,2-c]imidazole-5,1′-cyclopropane]-1-yl-N-thiazol-2-yl-acetamide]
Second: Cc1c(-c2ccc(N3CCOCC3)cc2)cc(C(F)(F)F)c2cn(C(C(=O)Nc3nccs3)c3ncn4c3CCC43CC3)nc12 (stereo not drawn) [Example 2, 2-[7-Methyl-6-(4-morpholinophenyl)-4-(trifluoromethyl)indazol-2-yl]-2-spiro[6,7-dihydropyrrolo[1,2-c]imidazole-5,1′-cyclopropane]-1-yl-N-thiazol-2-yl-acetamide]
The IC50 of the first is 2.2-fold lower: 20 nM for the first, 45 nM for the second.

In the case of `Cc1c(-c2ccc(N3CCOCC3)cc2)cc(C(F)(F)F)c2cn(C(C(=O)Nc3nccs3)c3ncn4c3CCC4(C)C)nc12` (stereo not drawn) [Example 3, 2-(5,5-Dimethyl-6,7-dihydropyrrolo[1,2-c]imidazol-1-yl)-2-[7-methyl-6-(4-morpholinophenyl)-4-(trifluoromethyl)indazol-2-yl]-N-thiazol-2-yl-acetamide], the IC50 is reported as 45 nM.
